Results as given in article PMC10961089, “Epidermal growth factor receptor inhibition potentiates chemotherapeutics‐mediated sensitization of metastatic breast cancer stem cells” (Cancer Reports, 2024).

Experiments:
[1] = test system: human CD44, ALDH1A1, Fibronectin, N‐Cadherin, Vimentin in tumor tissue; experiment: qRT-PCR of human CSC/EMT genes in tumor tissues; type: in vivo, C57BL/6 mice; details: with doxorubicin low dose vs low dose doxorubicin alone
Experimental: Additionally, total RNA was isolated from tumor tissues and utilized for cDNA synthesis (Thermo Scientific, Massachusetts, USA). To determine the transcriptional regulation of expression of EMT genes in tumor tissues subjected to various treatment regimes, quantitative real‐time PCR (qRT‐PCR) analysis was performed as described previously[28] using human gene‐specific forward and reverse primers of EMT genes. Amplification of Eukaryotic 18S rRNA served as an internal control and was utilized to calculate the fold change in expression.[29]
(§1) Animal studies have been carried out with the prior approval of the Institutional Animal Ethics Committee (IICT/IAEC/025/2023). C57BL/6 female mice of age 6–8 weeks (N = 35) were initially immunosuppressed with cyclophosphamide (50 mg/kg of body weight, i.p) on alternate days for 2 weeks. For generating a preclinical orthotopic xenograft tumor model, 2 × 10^6 GFP expressing sorted stable CD24^+‐breast cancer cells and CD24^−/CD44^+‐breast CSCs were orthotopically xeno‐transplanted subcutaneously at the fourth mammary fat pad of immune‐suppressed mice (n = 5/group). Subsequently, intratumoral administration of Doxorubicin at a low dose (2.5 mg/kg of body weight), high dose (10 mg/kg of body weight), and/or combinatorial treatment of the potent EGFR inhibitor, compound 1e (50 mg/kg of body weight) or the commercial EGFR inhibitor, PD153035 (50 mg/kg of body weight) with a low dose of doxorubicin was performed to the palpable tumors of breast CSCs at day‐3 post‐transplantation.

[2] = test system: CD44, p‐EGFR, p‐JNK, p‐p38 in tumor tissue; experiment: Immunohistochemical analysis of tumor tissue (colocalization with GFP, Pearson's correlation coefficient); type: in vivo, C57BL/6 mice
Experimental: as §1
Immunohistochemical analysis was performed by immunostaining the tissue serial sections with primary antibodies against GFP, CD44, p‐EGFR, p‐JNK, and p‐p38 (CST, USA) followed by alexafluor‐488/555 conjugated secondary antibodies (R&D systems, USA) and mounting medium containing DAPI.[28], [29] Images were captured using a confocal microscope (Olympus FV10i, Tokyo, Japan). Pearson's correlation coefficient was utilized to determine the co‐localization of GFP/CD44, GFP/p‐EGFR, GFP/p‐JNK, and GFP/p‐p38 (Table. ST3).

MDA‐MB‐231 [3] = test system: MDA‐MB‐231; parameters: method as in PMID 28398698; details: unit not printed in the sentence (Table 1 in μM); read-out: IC50 against MDA‐MB‐231; cited from earlier work
MDA‐MB‐468 [4] = test system: MDA‐MB‐468; parameters: method as in PMID 28398698; details: unit not printed in the sentence (Table 1 in μM); read-out: IC50 against MDA‐MB‐468; cited from earlier work
MDA‐MB‐231 [5] = experiment: Cell migration (chemotaxis), Boyden-Chamber assay; type: cell-based, human; details: Doxorubicin 0.01 μM + compound 5 μM (PD153035 10 μM) vs 10% FBS and Doxorubicin alone
Experimental: (§2) TNBC cell lines—MDA‐MB‐231, MDA‐MB‐468, and the sorted CD24^+‐breast cancer cells, and CD24^−/CD44^+‐breast CSC populations from MDA‐MB‐231 [6] were seeded at a density of 1 × 10^6 cells/well to evaluate their migratory potential by Boyden‐Chamber assay. […] At the end of the treatment period, the cells were plated at a density of 5 × 10^3 cells/well in the upper chamber of the Boyden chamber assembly and 10% FBS in the lower chamber was used as a chemoattractant. Separately, the cells in the upper chamber were treated with Doxorubicin (0.01–0.1 μM) alone or with the potential EGFR inhibitors (compounds—1c, 1e, 1g, 1h, 1j, and 1k (5 μM) based on their low IC50 values) or a commercial EGFR inhibitor, PD153035 (10 μM) and incubated for 4 h followed by fixation and staining as described previously.[28], [29]

MDA‐MB‐468 [6] = experiment: Cell migration (chemotaxis), Boyden-Chamber assay; type: cell-based, human; details: Doxorubicin 0.01 μM + compound 5 μM (PD153035 10 μM) vs 10% FBS and Doxorubicin alone
Experimental: as §2

[7] = test system: CD24^−/CD44^+‐breast CSCs xenotransplanted tumors; experiment: Preclinical orthotopic xenograft murine tumor model (tumor size, weight, H&E histology); type: in vivo, C57BL/6 mice
Experimental: as §1
Euthanization of mice was performed on day 14 post‐transplantation and tumor tissues were collected for histological and immunohistochemical analysis. Histological differences in tumor tissues were evaluated using hematoxylin and eosin staining (H&E).[28], [30]

[8] = test system: Bax and Cytochrome‐C in MDA‐MB‐231 cells; experiment: Gene expression of apoptotic genes, semi-quantitative RT-PCR; type: cell-based, human; details: MDA-MB-231, doxorubicin + compound 5 μM, 24 h
Experimental: Briefly, the cells were incubated at 37°C with serum starvation followed by culturing as described above. […] Briefly, the template RNA (1 μg) was utilized for cDNA synthesis using a First‐strand cDNA synthesis kit (Thermo Scientific, USA) according to the manufacturer's protocol. Thermal cycler (Mastercycler® nexus, Eppendorf) was used for the amplification of the expression of apoptotic genes—Bax, Bcl2, Cytochrome‐C, and target gene EGFR with the help of Dream Taq DNA Polymerase PCR Master Mix (Thermo Scientific, USA) along with human gene‐specific forward and reverse primer sequences of the apoptotic genes and EGFR (Table ST1). The expression of the target genes was normalized to the Eukaryotic 18S rRNA.

COc1cc2ncnc(Nc3cccc(Br)c3)c2cc1OC [PD153035, reference compound]
expression level of human CD44 in tumor tissue [1]: significantly decreased | colocalization of GFP/p‐EGFR ([2]; with doxorubicin low dose, CSC xenograft tumor tissue): decreased significantly | activation of apoptotic signaling mediators (GFP/p‐JNK, GFP/p‐p38 colocalization) ([2]; with low dose doxorubicin, comparable with high dose doxorubicin alone): increased activation | colocalization of GFP and CD44 (Pearson's correlation coefficient) ([2]; with low dose of doxorubicin, CSC xenograft tumor tissue): comparable to the high dose of doxorubicin treated group | IC50 (MDA‐MB‐231 [3]): 3.2 µM | IC50 (MDA‐MB‐468 [4]): 15.4 µM | migratory potential (MDA‐MB‐231 [5]): significant decrease | migratory potential (MDA‐MB‐468 [6]): significant decrease | tumorigenicity (H&E histology) ([7]; 50 mg/kg + low dose doxorubicin 2.5 mg/kg, CSC xenograft): significant decrease | histopathological finding in tumor tissue ([7]; 50 mg/kg + low dose doxorubicin 2.5 mg/kg, CSC xenograft, day 14): neoplastic mass in the dermal region which was completely necrosed and replaced with fibrous tissue | tumor size ([7]; intratumoral, 50 mg/kg + doxorubicin low dose 2.5 mg/kg vs low dose doxorubicin alone, CD24^−/CD44^+ CSC xenograft): significantly decreased | expression of pro‐apoptotic genes Bax and Cytochrome‐C [8]: marked increase
